# Laboratory results reported in patent US20050137121A1, “Inhibition of invasive remodelling” (priority 1996, published 2005).
# Several values for one entry are separate records, joined by “and”; a condition that tells them apart may be missing. Equal entries are not always repeated. Where two headings read alike, the source gives them in different places. Marks after values point to notes of the source that are not given here.
# Assays:
# mouse uPA = experiment: Mouse specific uPA ELISA of xenograft tumour homogenates; assay type: in vivo; settings: versus tumours from mock-treated animals, 125 mg/kg BB-94 daily
# Excerpt: Tumours from untreated control mice and from mice receiving BB94 were homogenized and assayed for mouse uPA content using a mouse specific uPA ELISA.
# plg^+/+ mice [1] = experiment: Wound healing, 20 mm full thickness skin incision; assay type: in vivo, mouse; settings: for time after which all wounds were healed: aprotinin 13,000 KIU and/or tranexamic acid 10 mg per day in three i.p. injections, untreated 17 days
# Excerpt: Four groups of mice were set up, consisting of 12 plg^−/− mice (group 1), another 12 plg^−/− mice (group 2), 12 plg^+/+ mice (group 3) and another 12 plg^+/+ mice (group 4). All mice were then wounded with a standardised 20 mm long, full thickness skin incision on the back.
# (§1) Each day after wounding the length of the open wounds was carefully measured and recorded. The time taken for each skin wound to completely close was also noted.
# (§2) The time taken for each skin wound to completely close was also noted.
# as §2, §2
# plg^−/− mice [2] = experiment: Wound healing, 20 mm full thickness skin incision; assay type: in vivo, mouse; settings: Galardin 2.5 mg i.p. once daily
# Excerpt: The methods used followed those described by Rømer et al, 1996. Four groups of mice were set up, consisting of 12 plg^−/− mice (group 1), another 12 plg^−/− mice (group 2), 12 plg^+/+ mice (group 3) and another 12 plg^+/+ mice (group 4). All mice were then wounded with a standardised 20 mm long, full thickness skin incision on the back.
# as §1
# Plg-deficient mice = experiment: Keratinocyte migration distance in skin wounds (morphometry); assay type: in vivo, mouse; settings: 100 mg/kg daily for 7 days after skin wounding
# Description: (§3) Keratinocyte migration. […] 18-20 sections of wound tissue from each group of mice were then analyzed microscopically, and the keratinocyte migration distance along the base of the epidermal outgrowth from the wound edge to the tip of the wedge (see Rømer et al., FIG. 2) was measured blindly by computer-assisted morphometry.
# wild-type mice = experiment: as above; assay type: in vivo, mouse; settings: 100 mg/kg daily for 7 days after skin wounding
# Description: as §3
# [3] = tested on: gelatinase B, collagenase-3, stromelysin-1, gelatinase A mRNA; experiment: MMP mRNA expression in wound tissue by in situ hybridization; assay type: in vivo, mouse; settings: wild-type and Plg-deficient mice, 100 mg/kg daily, versus mock treated
# Description: In parallel experiments, the mice were sacrificed and tissue sections prepared from the wound site. The tissue sections were analyzed for expression of various metalloproteases by in situ hybridisation and for matrix content by staining.
# In situ hybridization. […] The mouse macrophage elastase expression system was investigated with a single probe, while the expression of all other metalloproteases were investigated with two different non-overlapping probes, which in all cases gave identical results.
# plg^−/− mice [4] = tested on: plg^−/− mice
# Excerpt: In the evening, female plg^−/− mice (8-10 weeks old) were placed in cages together with male plg^−/− mice of proven potency.
# plg^+/+ mice [5] = experiment: Post-lactational mammary gland involution (gland weight); assay type: in vivo, mouse
# Excerpt: (§4) After mice had given birth, the litter was taken away from the mother and adjusted to eight pups, adding pups from other mothers if necessary in order to provide a constant feeding load on each mother. Lactation and feeding with the eight pups were allowed to proceed for 7-8 days, at which time the litter was removed (day 1).
# plg^−/− mice [6] = experiment: as above; assay type: in vivo, mouse
# Excerpt: as §4
# plg^+/+ mice [7] = experiment: Post-partum uterine involution (uterus weight); assay type: in vivo, mouse
# Excerpt: (§5) Treatment was continued to 4 days post-partum and on the fifth day post-partum the mice were sacrificed and the uteri removed, dissected free of adhering fatty tissue, and blotted dry before weighing.
# plg^−/− mice [8] = experiment: Post-partum uterine involution (uterus weight); assay type: in vivo, mouse
# Excerpt: as §5
# Lewis lung carcinoma = tested on: Lewis lung carcinoma
# Description: Four groups of 17 mice were injected subcutaneously with Lewis lung carcinoma tissue mince (approx. 1.0×10^6 cells). The first group (CON) were treated only with buffered vehicle. The second group (TA/AP) was treated i.p. three times each day with a mixture of tranexamic acid (TA) and aprotinin (AP), so that the total dosage was 10 mg TA and 13,000 KIU AP per day per mouse. […] The tumour growth in the mice was monitored every 2-3 days by careful measurement with callipers of the longest and shortest axes of the palpable tumours, and the calculated volume was plotted as a function of time. The growth rate of the tumours was followed until death and the survival of mice in the four groups was analyzed by a Kaplan-Meier plot. Histological sections from the primary murine Lewis Lung carcinoma were analyzed by in situ hybridization for the expression of stromelysin-1 and gelatinase-B.
# plg^+/+ mice [9] = settings: 2.5 mg i.p. daily, 5 mice
# plg^+/+ mice [10] = settings: Galardin 2.5 mg, aprotinin 13,000 KIU and tranexamic acid 10 mg per day i.p.
# Description: In the evening, wild-type (plg^+/+) female mice were placed together with plg^+/+ male mice of proven potency. Bach morning the females were closely examined for the characteristic vaginal “plugs” formed after mating, and the mated females were removed and allocated to four groups.
# [11] = molecular target: angiotensin converting enzyme (ACE) (Homo sapiens, UniProt P12821); settings: very weak inhibition; a million-fold higher than for the metalloproteases; cited from earlier work
# plasmin = plasmin (Homo sapiens, UniProt P00747); settings: very weak inhibition; a million-fold higher than for the metalloproteases; cited from earlier work
# stromelysin-1 (MMP-3) = stromelysin-1 (MMP-3) (Homo sapiens, UniProt P08254); settings: cited from earlier work
# [12] = Biological half-life of aprotinin in blood plasma; assay type: in vivo, mouse; settings: single i.p. injection of 2.1 mg
# Description: Fifteen mice (weighing approx. 25 g each) were injected i.p. with 0.75 ml of aprotinin solution (20,000 KIU/ml; approx. 2.1 mg) and at time intervals of 0.5, 1.5, 3.0, 6.0 and 24 h thereafter three mice were sacrificed and blood collected by cardiac puncture into citrate anti-coagulant tubes. Each plasma sample was ultrafiltrated through a 20,000 MW cut-off membrane, and the aprotinin level in the ultrafiltrate was determined by inhibition of the calorimetric activity of a standard trypsin solution.
# [13] = 2.5 mg/mouse i.p. daily from weaning day 2, weighed day 5, single animals
# [14] = 2.5 mg/mouse i.p. daily, weaning day 5
# stromelysin-1 (MMP-3), sequence (P08254 100-477, species assumed): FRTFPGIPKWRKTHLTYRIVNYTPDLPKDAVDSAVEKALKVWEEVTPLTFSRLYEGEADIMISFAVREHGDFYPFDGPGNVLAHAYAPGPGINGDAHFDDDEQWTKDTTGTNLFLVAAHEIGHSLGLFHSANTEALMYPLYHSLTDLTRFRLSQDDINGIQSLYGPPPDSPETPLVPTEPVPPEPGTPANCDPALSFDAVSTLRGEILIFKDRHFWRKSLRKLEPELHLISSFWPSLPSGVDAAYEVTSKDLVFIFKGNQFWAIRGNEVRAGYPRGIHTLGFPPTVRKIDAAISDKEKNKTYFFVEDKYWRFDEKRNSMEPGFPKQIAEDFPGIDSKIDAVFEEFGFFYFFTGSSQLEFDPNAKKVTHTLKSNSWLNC
# angiotensin converting enzyme (ACE), sequence (P12821 30-1306, species assumed): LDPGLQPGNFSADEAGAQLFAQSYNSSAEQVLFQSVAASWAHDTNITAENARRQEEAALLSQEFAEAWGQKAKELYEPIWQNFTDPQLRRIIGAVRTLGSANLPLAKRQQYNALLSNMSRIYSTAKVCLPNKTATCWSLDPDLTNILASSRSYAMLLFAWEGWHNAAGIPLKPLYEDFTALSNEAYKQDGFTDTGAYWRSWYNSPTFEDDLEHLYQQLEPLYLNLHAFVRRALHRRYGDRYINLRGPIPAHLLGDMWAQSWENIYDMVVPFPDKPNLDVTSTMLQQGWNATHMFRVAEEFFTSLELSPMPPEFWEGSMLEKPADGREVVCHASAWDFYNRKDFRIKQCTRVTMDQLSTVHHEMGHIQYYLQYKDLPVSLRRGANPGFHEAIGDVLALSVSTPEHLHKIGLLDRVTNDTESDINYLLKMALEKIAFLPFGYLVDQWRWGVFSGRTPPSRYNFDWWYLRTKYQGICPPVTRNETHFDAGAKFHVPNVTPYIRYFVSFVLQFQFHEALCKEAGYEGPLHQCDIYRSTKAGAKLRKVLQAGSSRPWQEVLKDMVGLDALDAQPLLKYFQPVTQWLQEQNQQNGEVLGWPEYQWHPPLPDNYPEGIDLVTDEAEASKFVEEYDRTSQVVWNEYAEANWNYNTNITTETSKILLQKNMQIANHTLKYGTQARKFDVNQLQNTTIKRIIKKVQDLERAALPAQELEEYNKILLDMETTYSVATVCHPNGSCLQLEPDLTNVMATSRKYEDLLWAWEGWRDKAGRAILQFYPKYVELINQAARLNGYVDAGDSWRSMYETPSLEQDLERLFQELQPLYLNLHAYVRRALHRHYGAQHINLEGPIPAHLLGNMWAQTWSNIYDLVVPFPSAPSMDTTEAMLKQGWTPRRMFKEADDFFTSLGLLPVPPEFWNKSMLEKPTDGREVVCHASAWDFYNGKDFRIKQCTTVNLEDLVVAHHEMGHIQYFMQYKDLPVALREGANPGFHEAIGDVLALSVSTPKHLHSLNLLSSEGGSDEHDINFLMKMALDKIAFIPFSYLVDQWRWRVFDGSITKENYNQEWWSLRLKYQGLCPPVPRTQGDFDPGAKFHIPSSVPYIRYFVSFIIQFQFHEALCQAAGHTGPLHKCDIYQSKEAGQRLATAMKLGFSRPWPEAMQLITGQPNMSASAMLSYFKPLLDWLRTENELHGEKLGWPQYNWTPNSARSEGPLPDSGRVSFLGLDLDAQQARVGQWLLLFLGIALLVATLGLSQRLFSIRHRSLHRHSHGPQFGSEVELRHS
# plasmin, sequence (P00747 581-810 limits assumed, species assumed): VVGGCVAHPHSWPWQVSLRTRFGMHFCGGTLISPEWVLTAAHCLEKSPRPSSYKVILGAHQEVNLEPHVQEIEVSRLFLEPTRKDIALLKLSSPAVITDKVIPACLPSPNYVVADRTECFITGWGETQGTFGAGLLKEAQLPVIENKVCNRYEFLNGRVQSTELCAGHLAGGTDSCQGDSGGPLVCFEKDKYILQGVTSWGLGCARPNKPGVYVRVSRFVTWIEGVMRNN
# plasmin, sequence (P00747 97-580 partner limits assumed, species assumed): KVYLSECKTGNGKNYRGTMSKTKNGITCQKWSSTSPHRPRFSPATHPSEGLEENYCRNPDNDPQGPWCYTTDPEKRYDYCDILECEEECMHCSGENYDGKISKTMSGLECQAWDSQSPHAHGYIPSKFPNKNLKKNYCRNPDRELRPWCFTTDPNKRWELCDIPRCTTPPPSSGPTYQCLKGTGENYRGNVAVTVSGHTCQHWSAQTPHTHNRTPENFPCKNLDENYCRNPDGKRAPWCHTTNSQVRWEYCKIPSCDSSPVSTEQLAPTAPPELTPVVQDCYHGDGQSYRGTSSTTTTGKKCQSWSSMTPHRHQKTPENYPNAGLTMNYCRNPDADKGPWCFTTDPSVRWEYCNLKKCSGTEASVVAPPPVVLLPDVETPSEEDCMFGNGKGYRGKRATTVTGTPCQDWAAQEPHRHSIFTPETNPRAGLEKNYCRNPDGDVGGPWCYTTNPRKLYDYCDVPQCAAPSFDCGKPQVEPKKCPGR
molecule,measurement,setting,value
"CNC(=O)[C@H](Cc1ccccc1)NC(=O)[C@H](CC(C)C)[C@H](CSc1cccs1)C(=O)NO [BB-94, Batimastat]",upregulation of mouse uPA in the tumours,mouse uPA,~2 fold
CNC(=O)[C@H](Cc1c[nH]c2ccccc12)NC(=O)[C@@H](CC(=O)NO)CC(C)C [Galardin™],wounds healed after 38 days,plg^+/+ mice [1]; Galardin 2.5 mg i.p. once daily,22%
same,healed wounds 38 days after wounding,plg^−/− mice [2],none
same,healed wounds after 80 days,plg^−/− mice [2],none
same,keratinocyte migration distance (mean value±standard deviation),Plg-deficient mice,208±60 arbitrary units
same,keratinocyte migration distance (mean value±standard deviation),wild-type mice,268±80 arbitrary units
same,expression of gelatinase A and stromelysin-3 mRNA in granulation tissue fibroblasts,[3],upregulated
same,"expression of gelatinase B, collagenase-3 and stromelysin-1 mRNA in leading-edge keratinocytes",[3],dramatically upregulated
same,% pregnant,plg^−/− mice [4]; 2.5 mg i.p. daily day 3.5 to 18.5,25%
same,Pregnancies,"plg^−/− mice [4]; 2.5 mg i.p. daily day 3.5 to 18.5, 4 mice",1*
same,% pregnant,"plg^−/− mice [4]; 2.5 mg i.p. daily day 3.5 to 18.5, listed as G",25* %
same,Gland 4 Weight,plg^+/+ mice [5]; [13],188 mg and 198 mg and 146 mg
same,Mean Weight (gland 4),plg^+/+ mice [5]; [14],177 mg
same,% Control (gland weight),plg^+/+ mice [5]; control = plg^+/+ untreated,162%
same,Gland 4 Weight,plg^−/− mice [6]; [13],262 mg and 342 mg and 251 mg
same,Mean Weight (gland 4),plg^−/− mice [6]; [14],285 mg
same,% Control (gland weight),plg^−/− mice [6]; control = plg^+/+ untreated,262%
same,Mean Weight ± SD (uterus),"plg^+/+ mice [7]; 90 mg/kg i.p. daily, fifth day post-partum",221 ± 65.3 mg
same,Weight (uterus),"plg^+/+ mice [7]; 90 mg/kg i.p. daily, fifth day post-partum, single animals, 90 mg/kg",288 mg and 285 mg and 135 mg and 206 mg and 192 mg
same,change in 5 day postpartum uterine weight versus control,"plg^+/+ mice [7]; 90 mg/kg, p=0.158",did not produce a significant increase
same,change in 5 day postpartum uterine weight versus control,"plg^−/− mice [8]; Plg^−/− mice, 90 mg/kg, p=0.012",significant increase
same,Mean Weight ± SD (uterus),"plg^−/− mice [8]; plg^−/− mice, 90 mg/kg i.p. daily, fifth day post-partum",337 ± 70.9 mg
same,Weight (uterus),"plg^−/− mice [8]; plg^−/− mice, 90 mg/kg i.p. daily, fifth day post-partum, single animals, 90 mg/kg",311 mg and 408 mg and 236 mg and 328 mg and 401 mg
same,survival of the tumour-bearing mice,"Lewis lung carcinoma; 10 mg TA and 13,000 KIU AP per day i.p., 1.8 mg Galardin per day per mouse",considerable prolongation
same,long-term survival (mice per group of 17),Lewis lung carcinoma; treatment stopped day 50,no long-term survivors
same,Pregnancies,plg^+/+ mice [9],3
same,production of offspring,plg^+/+ mice [10],unaffected
same,Ki,[11],in the millimolar range
same,Ki,plasmin,in the millimolar range
same,Ki,stromelysin-1 (MMP-3),30 nM
NC[C@H]1CC[C@H](C(=O)O)CC1 [tranexamic acid],time after which all wounds were healed,plg^+/+ mice [1],17 days
aprotinin,time after which all wounds were healed,plg^+/+ mice [1],24 days
same,half life,[12]; mouse plasma,approx. 3 h
same,plasma level,[12]; mouse,approx. 25 μg/ml
